This passage reports Ki results from patent US8921376B2, “Pyrrolopyridines useful as inhibitors of protein kinase” (Vertex Pharmaceuticals Incorporated, priority 2005, dated 2014).

Format in all cases: biochemical
Experiment [1] has as its target JAK2 (Homo sapiens, UniProt O60674). The experiment is described as follows: JAK2 inhibition assay (as Example 3 with JAK-2 enzyme). The method, boiled down:
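In HEPES pH 7.4 buffer with 10 mM MgCl2, 1 mM DTT, 25 mM NaCl and 0.01% BSA, JAK2 enzyme phosphorylated poly(Glu)4Tyr (final 15 μM) using 33P-ATP (final 12 μM) for 20 min at room temperature (25 °C). Reactions stopped with TCA; incorporated 33P measured by scintillation after filtration.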

Experiment [2] deals with T1, JAK3 (Homo sapiens, UniProt P52333).
T1 sequence (P52333 1-1124): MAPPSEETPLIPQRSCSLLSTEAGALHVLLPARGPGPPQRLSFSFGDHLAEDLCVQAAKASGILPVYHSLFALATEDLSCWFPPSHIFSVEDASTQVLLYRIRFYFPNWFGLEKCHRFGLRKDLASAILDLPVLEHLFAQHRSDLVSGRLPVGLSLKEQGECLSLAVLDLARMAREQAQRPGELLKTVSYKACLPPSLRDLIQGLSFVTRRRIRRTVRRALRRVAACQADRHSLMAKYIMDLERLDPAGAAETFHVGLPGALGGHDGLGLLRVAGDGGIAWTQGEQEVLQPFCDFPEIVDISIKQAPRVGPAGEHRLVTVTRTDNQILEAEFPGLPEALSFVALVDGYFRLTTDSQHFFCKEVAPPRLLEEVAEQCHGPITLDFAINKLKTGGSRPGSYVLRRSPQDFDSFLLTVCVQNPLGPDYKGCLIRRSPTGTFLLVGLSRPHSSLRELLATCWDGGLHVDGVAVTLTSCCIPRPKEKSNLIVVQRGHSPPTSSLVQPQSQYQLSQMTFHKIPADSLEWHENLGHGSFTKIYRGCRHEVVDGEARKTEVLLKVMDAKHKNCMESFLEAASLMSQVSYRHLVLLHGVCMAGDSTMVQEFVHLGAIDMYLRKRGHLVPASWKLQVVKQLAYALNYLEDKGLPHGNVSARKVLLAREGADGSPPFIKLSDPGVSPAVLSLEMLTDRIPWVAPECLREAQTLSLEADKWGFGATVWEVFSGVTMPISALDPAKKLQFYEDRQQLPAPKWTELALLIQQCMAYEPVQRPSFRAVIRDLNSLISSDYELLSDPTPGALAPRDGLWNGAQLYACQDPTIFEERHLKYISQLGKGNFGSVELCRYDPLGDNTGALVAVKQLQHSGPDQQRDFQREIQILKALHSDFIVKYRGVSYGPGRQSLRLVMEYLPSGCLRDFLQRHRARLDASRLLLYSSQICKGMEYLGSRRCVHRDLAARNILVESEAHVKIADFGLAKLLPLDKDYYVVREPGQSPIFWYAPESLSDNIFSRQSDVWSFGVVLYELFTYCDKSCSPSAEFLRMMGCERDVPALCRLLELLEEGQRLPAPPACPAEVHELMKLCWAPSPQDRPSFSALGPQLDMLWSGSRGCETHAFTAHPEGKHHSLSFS
Briefly: JAK3 inhibition assay (33P incorporation into poly(Glu)4Tyr). The method, boiled down: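 After TCA quench and filter harvest, scintillation counting of 33P measured phosphorylation of poly(Glu)4Tyr (1 μM) by 1 nM JAK3. The 20-min, 25° C. reaction contained 5 μM ATP (200 μCi/μmole) in pH 7.4 HEPES buffer with 10 mM MgCl2.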

Experiment [3] addresses ROCK I (Homo sapiens, UniProt Q13464). Briefly: ROCK-I inhibition assay (radioactive enzyme assay, MBP substrate). The method, boiled down:
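Human ROCK at 5 nM phosphorylated 27 μM myelin basic protein with 13 μM [γ-33P]ATP (final) in HEPES pH 7.5, MgCl2, NaCl, DTT and 1.5% DMSO. Reactions ran 2 h at room temperature before TCA quench and filter-plate scintillation counting. After background subtraction, data were fit to give Ki(app).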

Where [4] appears, read: Table 6, enzyme inhibition data (Ki).
The mark [5] stands for this setting: enzyme inhibition, Ki(app), Table 5.

Chain of ROCK I (Q13464 whole entry): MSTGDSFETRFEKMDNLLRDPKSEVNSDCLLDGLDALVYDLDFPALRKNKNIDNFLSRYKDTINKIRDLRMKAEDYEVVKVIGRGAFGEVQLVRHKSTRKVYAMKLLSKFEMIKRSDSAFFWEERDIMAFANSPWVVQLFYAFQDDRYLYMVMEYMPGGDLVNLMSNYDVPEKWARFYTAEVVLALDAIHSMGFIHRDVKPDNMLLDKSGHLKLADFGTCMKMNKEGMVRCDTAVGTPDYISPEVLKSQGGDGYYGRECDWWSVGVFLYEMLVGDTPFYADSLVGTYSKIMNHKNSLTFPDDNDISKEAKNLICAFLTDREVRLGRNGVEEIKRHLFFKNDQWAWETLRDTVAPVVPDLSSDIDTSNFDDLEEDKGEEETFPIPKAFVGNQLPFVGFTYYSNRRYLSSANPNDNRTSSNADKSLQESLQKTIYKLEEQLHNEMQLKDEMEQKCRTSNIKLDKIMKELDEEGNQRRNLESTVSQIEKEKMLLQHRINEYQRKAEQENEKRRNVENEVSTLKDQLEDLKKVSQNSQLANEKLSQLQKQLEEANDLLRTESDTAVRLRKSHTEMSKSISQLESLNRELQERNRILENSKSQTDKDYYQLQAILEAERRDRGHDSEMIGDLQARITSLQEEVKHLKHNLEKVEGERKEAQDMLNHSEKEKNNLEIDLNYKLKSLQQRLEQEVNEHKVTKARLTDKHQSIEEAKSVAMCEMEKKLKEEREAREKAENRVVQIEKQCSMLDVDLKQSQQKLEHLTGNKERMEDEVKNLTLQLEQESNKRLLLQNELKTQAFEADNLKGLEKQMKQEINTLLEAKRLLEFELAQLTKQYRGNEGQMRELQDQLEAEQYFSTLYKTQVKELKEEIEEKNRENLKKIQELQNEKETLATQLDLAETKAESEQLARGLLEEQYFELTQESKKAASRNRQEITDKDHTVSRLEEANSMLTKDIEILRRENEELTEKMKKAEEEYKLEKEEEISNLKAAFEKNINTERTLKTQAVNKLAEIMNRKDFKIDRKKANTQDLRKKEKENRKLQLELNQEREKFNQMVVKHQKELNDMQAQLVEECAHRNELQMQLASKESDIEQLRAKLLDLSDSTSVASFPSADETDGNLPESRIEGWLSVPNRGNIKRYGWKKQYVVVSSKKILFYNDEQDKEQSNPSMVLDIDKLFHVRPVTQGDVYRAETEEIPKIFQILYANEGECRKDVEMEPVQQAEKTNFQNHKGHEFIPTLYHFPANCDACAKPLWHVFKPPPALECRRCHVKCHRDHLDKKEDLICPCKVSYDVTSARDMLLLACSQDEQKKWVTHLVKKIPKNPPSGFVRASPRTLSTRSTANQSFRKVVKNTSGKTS
Chain of JAK2 (O60674 whole entry): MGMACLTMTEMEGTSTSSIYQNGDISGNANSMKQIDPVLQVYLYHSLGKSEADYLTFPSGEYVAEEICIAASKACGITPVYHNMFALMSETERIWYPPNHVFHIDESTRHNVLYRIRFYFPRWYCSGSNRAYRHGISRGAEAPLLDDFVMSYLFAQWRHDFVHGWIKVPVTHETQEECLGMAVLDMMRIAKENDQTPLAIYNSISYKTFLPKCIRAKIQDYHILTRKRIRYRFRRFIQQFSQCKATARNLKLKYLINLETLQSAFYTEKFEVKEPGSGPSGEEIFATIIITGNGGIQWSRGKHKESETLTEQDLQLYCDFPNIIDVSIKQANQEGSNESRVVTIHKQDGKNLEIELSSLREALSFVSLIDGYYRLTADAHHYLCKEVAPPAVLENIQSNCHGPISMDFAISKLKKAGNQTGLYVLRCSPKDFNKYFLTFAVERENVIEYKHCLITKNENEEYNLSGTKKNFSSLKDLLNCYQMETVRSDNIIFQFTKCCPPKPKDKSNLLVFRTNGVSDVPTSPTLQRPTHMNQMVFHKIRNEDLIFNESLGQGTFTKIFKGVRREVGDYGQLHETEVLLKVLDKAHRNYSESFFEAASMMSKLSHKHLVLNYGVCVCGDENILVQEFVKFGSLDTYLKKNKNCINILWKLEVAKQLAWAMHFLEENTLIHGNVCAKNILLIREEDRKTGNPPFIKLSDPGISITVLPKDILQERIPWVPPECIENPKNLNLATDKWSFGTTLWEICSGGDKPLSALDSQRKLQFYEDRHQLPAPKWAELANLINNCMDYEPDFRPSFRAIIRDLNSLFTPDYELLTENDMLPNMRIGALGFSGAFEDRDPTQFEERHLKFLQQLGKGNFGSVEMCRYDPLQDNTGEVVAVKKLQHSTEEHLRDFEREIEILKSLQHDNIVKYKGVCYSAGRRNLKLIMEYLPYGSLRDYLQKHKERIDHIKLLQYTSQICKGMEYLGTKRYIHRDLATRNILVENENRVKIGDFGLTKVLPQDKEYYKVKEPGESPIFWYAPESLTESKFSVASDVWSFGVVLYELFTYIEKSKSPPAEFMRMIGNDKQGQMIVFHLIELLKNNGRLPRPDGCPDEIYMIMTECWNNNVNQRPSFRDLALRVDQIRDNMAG

`CCCOc1ccccc1-c1ccnc2[nH]ccc12` [compound 234]: the figures for the Ki in experiment [1] (setting [4]), in experiment [2] (setting [4]) and in experiment [3] (setting [4]) were above 5000 nM, 500 to 5000 nM and above 4000 nM, respectively.
On to `O=C(c1cccc(-c2ccnc3[nH]ccc23)c1)N1CCOCC1` [compound 94, Morpholin-4-yl-[3-(1H-pyrrolo[2,3-b]pyridin-4-yl)-phenyl]-methanone], for which the Ki in experiment [1] (enzyme inhibition, Table 5) lay within 500 to 5000 nM; in experiment [2] (enzyme inhibition, Table 5), 500 to 5000 nM; in experiment [3] (setting [5]) it was 500 to 5000 nM.
For the compound `Cc1ccc(-c2ccnc3[nH]ccc23)c(C)c1` [compound 218], the Ki in experiment [1] (setting [4]) was above 5000 nM; in experiment [2] (setting [4]), 500 to 5000 nM; in experiment [3] (setting [4]), below 500 nM.
The matching figures for `C[C@@H]1CC[C@H](C)N1C(=O)c1csc(-c2ccnc3[nH]ccc23)n1` [compound 417]: below 500 nM, below 500 nM and below 500 nM.
In the case of `c1cc(-c2cn[nH]c2)c2cc[nH]c2n1` [compound 250], the Ki in experiment [1] (setting [4]), in experiment [2] (setting [4]) and in experiment [3] (setting [4]) was below 500 nM in each case.
In the case of `c1cnc2c(-c3ccnc4[nH]ccc34)cccc2c1` [compound 227], the figures for the Ki in experiment [1] (setting [4]), in experiment [2] (setting [4]) and in experiment [3] (setting [4]) were above 5000 nM, above 5000 nM and above 4000 nM, respectively.
Regarding `CCCOC(=O)N1CC[C@@H](Nc2c(Cl)cnc3[nH]ccc23)C1` [compound 171], the figures for the Ki in experiment [1] (setting [4]), in experiment [2] (setting [4]) and in experiment [3] (setting [4]) were below 500 nM, below 500 nM and 500 to 5000 nM, respectively.
Regarding `O=C(NCCC(F)(F)F)c1ccc(-c2ccnc3[nH]ccc23)cc1` [compound 268], the Ki in experiment [1] (setting [4]), in experiment [2] (setting [4]) and in experiment [3] (setting [4]) was below 500 nM in each case.
For `Cc1ccc(-c2c(Cl)cnc3[nH]ccc23)s1` [compound 140], the Ki is below 500 nM in experiment [1] (setting [4]), below 500 nM in experiment [2] (setting [4]) and 500 to 5000 nM in experiment [3] (setting [4]).
Turning to `CCN(Cc1ccccc1)C(=O)c1csc(-c2ccnc3[nH]ccc23)n1` [compound 404], the Ki in experiment [1] (setting [4]), in experiment [2] (setting [4]) and in experiment [3] (setting [4]) was below 500 nM in each case.
Turning to `CN(C)Cc1cccc(-c2ccnc3[nH]ccc23)c1` [compound 85, Dimethyl-[3-(1H-pyrrolo[2,3-b]pyridin-4-yl)-benzyl]-amine], the Ki was 500 to 5000 nM in experiment [1] (enzyme inhibition, Table 5); below 500 nM in experiment [2] (enzyme inhibition, Table 5); below 500 nM in experiment [3] (setting [5]).
Take `O=C(c1csc(-c2ccnc3[nH]ccc23)n1)N1CCCC1` [compound 418]: the results for the Ki in experiment [1] (setting [4]), in experiment [2] (setting [4]) and in experiment [3] (setting [4]) were below 500 nM, 500 to 5000 nM and below 500 nM, respectively.
On to `CC1CCCN1C(=O)c1csc(-c2ccnc3[nH]ccc23)n1` (stereo not drawn) [compound 419], for which the Ki in experiment [1] (setting [4]), in experiment [2] (setting [4]) and in experiment [3] (setting [4]) was below 500 nM throughout.
For the compound `CN1CCN(Cc2cccc(-c3ccnc4[nH]ccc34)c2)CC1` [compound 89, 4-[3-(4-Methyl-piperazin-1-ylmethyl)-phenyl]-1H-pyrrolo[2,3-b]pyridine], the Ki in experiment [1] (enzyme inhibition, Table 5) is 500 to 5000 nM; in experiment [2] (enzyme inhibition, Table 5) it was 500 to 5000 nM; in experiment [3] (setting [5]), 500 to 5000 nM.
Regarding `CCC(=O)Nc1cccc(Nc2c(Cl)cnc3[nH]ccc23)c1` [compound 155], the Ki was below 500 nM in experiment [1] (setting [4]), below 500 nM in experiment [2] (setting [4]) and above 4000 nM in experiment [3] (setting [4]).
`C1=C(c2ccnc3[nH]ccc23)CCNC1` [compound 45]: the Ki in experiment [1] (enzyme inhibition, Table 5) is 500 to 5000 nM; in experiment [2] (enzyme inhibition, Table 5), 500 to 5000 nM; in experiment [3] (setting [5]), below 500 nM.
Turning to `Cc1cccc(-c2ccnc3[nH]ccc23)c1C` [compound 212], the Ki in experiment [1] (setting [4]), in experiment [2] (setting [4]) and in experiment [3] (setting [4]) was 500 to 5000 nM throughout.
Regarding `CCC(=O)N1CCCC(Nc2c(Cl)cnc3[nH]ccc23)C1` (stereo not drawn) [compound 175], the results for the Ki in experiment [1] (setting [4]), in experiment [2] (setting [4]) and in experiment [3] (setting [4]) were below 500 nM, below 500 nM and above 4000 nM, respectively.
In the case of `N#CCc1cccc(-c2ccnc3[nH]ccc23)c1` [compound 63, [3-(1H-Pyrrolo[2,3-b]pyridin-4-yl)-phenyl]-acetonitrile], the Ki was below 500 nM in experiment [1] (enzyme inhibition, Table 5); below 500 nM in experiment [2] (enzyme inhibition, Table 5); below 500 nM in experiment [3] (setting [5]).
Consider `C1=C(c2ccnc3[nH]ccc23)CCCC1` [compound 30, 4-Cyclohexenyl-1H-pyrrolo[2,3b]pyridine], for which the Ki in experiment [1] (enzyme inhibition, Table 5) was below 500 nM; in experiment [2] (enzyme inhibition, Table 5), below 500 nM; in experiment [3] (setting [5]) it was below 500 nM.
Take `CCCCN(CC#N)C(=O)c1cc(-c2ccnc3[nH]ccc23)c[nH]1` [compound 300]: the Ki in experiment [1] (setting [4]), in experiment [2] (setting [4]) and in experiment [3] (setting [4]) was below 500 nM each time.
With `CC1CCC(C)N1C(=O)c1cc(-c2ccnc3[nH]ccc23)c[nH]1` (stereo not drawn) [compound 375], the Ki in experiment [1] (setting [4]), in experiment [2] (setting [4]) and in experiment [3] (setting [4]) was below 500 nM throughout.
Turning to `CC(C)(C)OC(=O)n1cccc1-c1c(Cl)cnc2[nH]ccc12` [compound 143], the Ki in experiment [1] (setting [4]) is 500 to 5000 nM; in experiment [2] (setting [4]), above 5000 nM; in experiment [3] (setting [4]), above 4000 nM.
The matching figures for `CCCS(=O)(=O)N1CCCC(Nc2c(Cl)cnc3[nH]ccc23)C1` (stereo not drawn) [compound 177]: below 500 nM, below 500 nM and 500 to 5000 nM.
The matching figures for `C[C@@H]1CC[C@@H](C)N1C(=O)c1csc(-c2ccnc3[nH]ccc23)n1` [compound 416]: below 500 nM, below 500 nM and below 500 nM.
Take `Cc1cccc(C)c1-c1ccnc2[nH]ccc12` [compound 217]: the Ki in experiment [1] (setting [4]) is above 5000 nM; in experiment [2] (setting [4]), above 5000 nM; in experiment [3] (setting [4]), above 4000 nM.
Take `CC(C)N(C)c1cccc(-c2ccnc3[nH]ccc23)n1` [compound 61, N-Isopropyl-N-methyl-6-(1H-pyrrolo[2,3-b]pyridin-4-yl)pyridin-2-amine]: the Ki in experiment [1] (enzyme inhibition, Table 5) was below 500 nM; in experiment [2] (enzyme inhibition, Table 5) it was 500 to 5000 nM; in experiment [3] (setting [5]), 500 to 5000 nM.
For `N#CCCN(Cc1ccccc1)C(=O)c1cc(-c2c(F)cnc3[nH]ccc23)c[nH]1` [compound 394], the Ki in experiment [1] (setting [4]), in experiment [2] (setting [4]) and in experiment [3] (setting [4]) was below 500 nM in each case.
Take `O=C(NCC(F)F)c1cc(-c2ccnc3[nH]ccc23)c[nH]1` [compound 292]: the Ki in experiment [1] (setting [4]), in experiment [2] (setting [4]) and in experiment [3] (setting [4]) was below 500 nM throughout.
As to `CC(C)NC(=O)c1cc(-c2ccnc3[nH]ccc23)c[nH]1` [compound 264], the Ki in experiment [1] (setting [4]), in experiment [2] (setting [4]) and in experiment [3] (setting [4]) was below 500 nM throughout.
For the compound `O=C(NC1CCCCC1)c1cc(-c2ccnc3[nH]ccc23)c[nH]1` [compound 288], the Ki in experiment [1] (setting [4]), in experiment [2] (setting [4]) and in experiment [3] (setting [4]) was below 500 nM in each case.
Take `OCc1cccc(-c2ccnc3[nH]ccc23)c1` [compound 49, [3-(1H-Pyrrolo[2,3-b]pyridin-4-yl)-phenyl]-methanol]: the Ki is 500 to 5000 nM in experiment [1] (enzyme inhibition, Table 5); below 500 nM in experiment [2] (enzyme inhibition, Table 5); below 500 nM in experiment [3] (setting [5]).
On to `CCCNC(=O)c1cc(-c2c(Cl)cnc3[nH]ccc23)c[nH]1` [compound 279], for which the Ki in experiment [1] (setting [4]) was below 500 nM; in experiment [2] (setting [4]), below 500 nM; in experiment [3] (setting [4]) it was 500 to 5000 nM.
`O=C(NCC(F)(F)F)[C@H](CO)Nc1nc(-c2ccnc3[nH]ccc23)ncc1F` [compound 204]: the results for the Ki in experiment [1] (setting [4]), in experiment [2] (setting [4]) and in experiment [3] (setting [4]) were 500 to 5000 nM, below 500 nM and 500 to 5000 nM, respectively.
Take `N#CCCN(CC(F)(F)F)C(=O)c1csc(-c2ccnc3[nH]ccc23)n1` [compound 403]: the Ki in experiment [1] (setting [4]), in experiment [2] (setting [4]) and in experiment [3] (setting [4]) was below 500 nM throughout.
